Data set [1] addresses T1, SyAcnB (Synechocystis sp. PCC 6803 aconitase B) (Synechocystis sp. PCC 6803, UniProt P74582).
T1 construct: gene acnB; full-length, synthetic gene in pGEX6P-1 (BamHI-XhoI), GST tag (elution with glutathione, no cleavage described), E. coli DH5alpha
T1 sequence (P74582 1-868): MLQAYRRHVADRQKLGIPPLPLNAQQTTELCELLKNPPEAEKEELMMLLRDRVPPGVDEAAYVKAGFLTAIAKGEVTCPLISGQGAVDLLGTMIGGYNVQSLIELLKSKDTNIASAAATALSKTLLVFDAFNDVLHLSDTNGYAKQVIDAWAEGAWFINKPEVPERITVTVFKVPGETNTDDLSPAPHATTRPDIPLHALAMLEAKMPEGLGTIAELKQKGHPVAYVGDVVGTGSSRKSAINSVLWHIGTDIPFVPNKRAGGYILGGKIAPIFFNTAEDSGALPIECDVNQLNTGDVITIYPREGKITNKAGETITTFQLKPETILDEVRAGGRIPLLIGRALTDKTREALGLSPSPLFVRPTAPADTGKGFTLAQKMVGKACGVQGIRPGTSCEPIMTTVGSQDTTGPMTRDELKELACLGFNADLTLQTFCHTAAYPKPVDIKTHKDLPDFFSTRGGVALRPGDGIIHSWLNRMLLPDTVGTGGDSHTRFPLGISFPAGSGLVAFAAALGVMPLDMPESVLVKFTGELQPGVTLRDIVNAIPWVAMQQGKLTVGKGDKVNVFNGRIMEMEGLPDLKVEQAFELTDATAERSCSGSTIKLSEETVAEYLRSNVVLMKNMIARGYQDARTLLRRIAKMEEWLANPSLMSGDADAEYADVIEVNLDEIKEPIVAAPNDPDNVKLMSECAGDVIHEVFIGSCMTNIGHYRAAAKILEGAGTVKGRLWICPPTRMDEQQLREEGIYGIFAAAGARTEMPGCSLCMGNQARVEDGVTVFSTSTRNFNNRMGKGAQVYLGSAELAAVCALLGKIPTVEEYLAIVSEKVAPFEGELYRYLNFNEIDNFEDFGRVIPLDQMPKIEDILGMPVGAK
Put plainly: cis-aconitate formation, A240. Format: biochemical. Particulars: read-out: % residual activity at 5 mM.

Substrate in data set [2]: O=C(O)CC(C(=O)O)C(O)C(=O)O
Put plainly: cis-aconitate formation, A240. Format: biochemical, Synechocystis sp. PCC 6803. Particulars: Tris-HCl pH 8.0, 53 °C; reactivated holo-enzyme; DL-isocitrate used.

Substrate in data set [3]: O=C(O)CC(O)(CC(=O)O)C(=O)O
Put plainly: purified protein. The settings on record: Tris-HCl pH 7.7, 45 °C; reactivated holo-enzyme.

The values below come from publication PMC8385029 (Scientific Reports, 2021).

As to `O=C(O)CCC(=O)C(=O)O` [2-OG], the remaining activity at 5000 µM in data set [1] turned out to be 72%.

Consider `N[C@@H](CC(=O)O)C(=O)O` [L-aspartate], for which the remaining activity at 5000 µM in data set [1] was 84%.

As for `N[C@@H](CCC(=O)O)C(=O)O` [L-glutamate], the remaining activity at 5000 µM in data set [1] came to 85%.

On to `NC(=O)CC[C@H](N)C(=O)O` [L-glutamine], for which the remaining activity at 5000 µM in data set [1] was found to be 81%.

For the molecule `CC(=O)C(=O)O` [pyruvate], in data set [1], the remaining activity at 5000 µM stood at 69%.

B1: SyAcnB (Synechocystis sp. PCC 6803 aconitase B) (Synechocystis sp. PCC 6803 substr. Kazusa) (protein)
chain: MLQAYRRHVADRQKLGIPPLPLNAQQTTELCELLKNPPEAEKEELMMLLRDRVPPGVDEAAYVKAGFLTAIAKGEVTCPLISGQGAVDLLGTMIGGYNVQSLIELLKSKDTNIASAAATALSKTLLVFDAFNDVLHLSDTNGYAKQVIDAWAEGAWFINKPEVPERITVTVFKVPGETNTDDLSPAPHATTRPDIPLHALAMLEAKMPEGLGTIAELKQKGHPVAYVGDVVGTGSSRKSAINSVLWHIGTDIPFVPNKRAGGYILGGKIAPIFFNTAEDSGALPIECDVNQLNTGDVITIYPREGKITNKAGETITTFQLKPETILDEVRAGGRIPLLIGRALTDKTREALGLSPSPLFVRPTAPADTGKGFTLAQKMVGKACGVQGIRPGTSCEPIMTTVGSQDTTGPMTRDELKELACLGFNADLTLQTFCHTAAYPKPVDIKTHKDLPDFFSTRGGVALRPGDGIIHSWLNRMLLPDTVGTGGDSHTRFPLGISFPAGSGLVAFAAALGVMPLDMPESVLVKFTGELQPGVTLRDIVNAIPWVAMQQGKLTVGKGDKVNVFNGRIMEMEGLPDLKVEQAFELTDATAERSCSGSTIKLSEETVAEYLRSNVVLMKNMIARGYQDARTLLRRIAKMEEWLANPSLMSGDADAEYADVIEVNLDEIKEPIVAAPNDPDNVKLMSECAGDVIHEVFIGSCMTNIGHYRAAAKILEGAGTVKGRLWICPPTRMDEQQLREEGIYGIFAAAGARTEMPGCSLCMGNQARVEDGVTVFSTSTRNFNNRMGKGAQVYLGSAELAAVCALLGKIPTVEEYLAIVSEKVAPFEGELYRYLNFNEIDNFEDFGRVIPLDQMPKIEDILGMPVGAK
notes: full-length, synthetic gene in pGEX6P-1 (BamHI-XhoI), GST tag (elution with glutathione, no cleavage described), E. coli DH5alpha
On to B1, for which, in data set [2], the Km (commonly the concentration of substrate that gives half-maximal velocity) worked out at 1540 ± 170 µM; the kcat (as a rule, the number of substrate molecules converted per active site and unit of time at saturation) was 16.67 ± 0.34 s⁻¹. For the same molecule, in data set [3], the Km was 1130 ± 40 µM and the kcat was determined as 9.12 ± 0.14 s⁻¹.
